ChEMBL document CHEMBL1201862, “PubChem BioAssay data set” (2004)
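The compound was tested at five concentrations on cells cultured in 96-well plates, with a 48-hour exposure period. Abbreviation: GI50, concentration required for 50% inhibition of growth.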 Activity calls are given as the source filed them. No stated cut-off is given here; in the data, active = GI50 up to about 1.1 µM and inactive = higher.

How the values were obtained:
Assay in all cases: NCI anticancer screen, dose series, 48 h
DMS-273 = tested on: DMS-273
XF498 = tested on: XF498
LXFL 529 = tested on: LXFL 529
RXF 631 = tested on: RXF 631
HOP-18 = tested on: HOP-18
M19-MEL = tested on: M19-MEL
DLD-1 = tested on: DLD-1
KM-20L2 = tested on: KM-20L2
T47D = tested on: T47D

Measured: GI50

Cn1cnc([N+](=O)[O-])c1Sc1n[nH]c(-c2ccc(Cl)cc2)n1
inactive: DMS-273 16.9 µM | XF498 10.1 µM | LXFL 529 11.7 µM | RXF 631 20.7 µM | HOP-18 1.47 µM | M19-MEL 19 µM | DLD-1 18.4 µM

N=C(N)NS(=O)(=O)c1ccc(NC(=O)c2cccc3c(Nc4ccc(S(=O)(=O)N=C(N)N)cc4)c4ccccc4nc23)cc1
inactive: DMS-273 55.2 µM | XF498 > 100 µM | KM-20L2 37.5 µM | LXFL 529 26.5 µM | RXF 631 > 100 µM | HOP-18 > 100 µM | M19-MEL 47.4 µM | DLD-1 92.9 µM

Cn1ncc2c(Nc3ccc(Cl)cc3)c3ccccc3nc21
inactive: DMS-273 15.2 µM | XF498 > 10 µM | LXFL 529 18.6 µM | RXF 631 13.1 µM | HOP-18 22.3 µM | M19-MEL 19.3 µM | DLD-1 11.2 µM

Cc1cccc(C(C)C)c1NC(=O)C(=O)C(C(=O)c1ccccc1F)C1OC(=O)c2ccccc21 (stereo unspecified)
inactive: DMS-273 19 µM | XF498 10.4 µM | KM-20L2 29.2 µM | LXFL 529 11.9 µM | RXF 631 18.6 µM | HOP-18 3.59 µM | M19-MEL 11.5 µM | DLD-1 14.8 µM

C/C1=C/C2OC(=O)C3(C)C2C(CC2(C)OC1=CC2=O)OC3(O)C(C)C (stereo unspecified)
inactive: DMS-273 33 µM | XF498 23.7 µM | T47D 58.2 µM | KM-20L2 21.8 µM | LXFL 529 27.4 µM | RXF 631 33.1 µM | HOP-18 37.8 µM | M19-MEL 34.4 µM | DLD-1 32.7 µM

C#Cc1cccc(N2C(=O)CCC2=O)c1
inactive: DMS-273 23.2 µM | XF498 15 µM | T47D 18.9 µM | KM-20L2 25.8 µM | LXFL 529 11.1 µM | RXF 631 21.5 µM | HOP-18 16.7 µM | M19-MEL 19.5 µM | DLD-1 17.9 µM

Clc1cccc(Cl)c1C1SCc2nc3ccccc3n21 (stereo unspecified)
inactive: DMS-273 14.6 µM | XF498 > 100 µM | KM-20L2 43.2 µM | LXFL 529 > 100 µM | RXF 631 15.4 µM | HOP-18 > 100 µM | M19-MEL > 100 µM | DLD-1 51.1 µM
